Laboratory results taken from ChEMBL document CHEMBL1909046, “DrugMatrix in vitro pharmacology data”.

What was measured:
Cytochrome P450 2A6 = molecular target: T1, Cytochrome P450 2A6 (Homo sapiens, UniProt P11509); conditions: bti-tn-5b1-4; further: in other assays of this panel Not Active means under 50% inhibition at 10 µM
T1 sequence (P11509 whole entry): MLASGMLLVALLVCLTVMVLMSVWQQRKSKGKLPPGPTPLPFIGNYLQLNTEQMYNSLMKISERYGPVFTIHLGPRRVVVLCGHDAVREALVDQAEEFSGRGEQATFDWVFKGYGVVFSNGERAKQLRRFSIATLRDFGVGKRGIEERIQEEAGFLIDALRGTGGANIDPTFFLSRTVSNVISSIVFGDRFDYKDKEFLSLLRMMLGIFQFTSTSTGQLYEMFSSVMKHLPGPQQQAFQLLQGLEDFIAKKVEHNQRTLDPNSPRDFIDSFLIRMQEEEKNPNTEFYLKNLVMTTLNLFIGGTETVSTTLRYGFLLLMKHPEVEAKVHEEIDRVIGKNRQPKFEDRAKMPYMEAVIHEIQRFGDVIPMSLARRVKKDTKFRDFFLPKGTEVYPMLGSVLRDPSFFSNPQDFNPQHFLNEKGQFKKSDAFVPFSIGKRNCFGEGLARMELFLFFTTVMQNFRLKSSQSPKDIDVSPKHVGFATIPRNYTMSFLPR

[1] = molecular target: 5-hydroxytryptamine receptor 4 (Cavia porcellus, UniProt O70528); type: cell membranes, Dunkin-Hartley, Striatum, Membrane; further: in other assays of this panel Not Active means under 50% inhibition at 10 µM
Chain of 5-hydroxytryptamine receptor 4 (O70528 whole entry): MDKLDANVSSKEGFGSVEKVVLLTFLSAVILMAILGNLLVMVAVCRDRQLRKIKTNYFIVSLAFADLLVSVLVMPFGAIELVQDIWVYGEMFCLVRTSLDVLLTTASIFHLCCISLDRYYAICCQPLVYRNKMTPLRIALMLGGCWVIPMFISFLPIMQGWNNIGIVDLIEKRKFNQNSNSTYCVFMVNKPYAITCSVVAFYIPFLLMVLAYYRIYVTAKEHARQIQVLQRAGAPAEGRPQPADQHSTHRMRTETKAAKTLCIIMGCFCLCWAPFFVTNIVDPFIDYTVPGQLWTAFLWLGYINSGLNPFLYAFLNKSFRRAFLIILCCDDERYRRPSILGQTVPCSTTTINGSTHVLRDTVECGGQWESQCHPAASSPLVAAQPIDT

Histamine H2 receptor = Histamine H2 receptor (Homo sapiens, UniProt P25021); type: cell membranes, CHO-K1, Membrane; further: in other assays of this panel Not Active means under 50% inhibition at 10 µM
Chain of Histamine H2 receptor (P25021 whole entry): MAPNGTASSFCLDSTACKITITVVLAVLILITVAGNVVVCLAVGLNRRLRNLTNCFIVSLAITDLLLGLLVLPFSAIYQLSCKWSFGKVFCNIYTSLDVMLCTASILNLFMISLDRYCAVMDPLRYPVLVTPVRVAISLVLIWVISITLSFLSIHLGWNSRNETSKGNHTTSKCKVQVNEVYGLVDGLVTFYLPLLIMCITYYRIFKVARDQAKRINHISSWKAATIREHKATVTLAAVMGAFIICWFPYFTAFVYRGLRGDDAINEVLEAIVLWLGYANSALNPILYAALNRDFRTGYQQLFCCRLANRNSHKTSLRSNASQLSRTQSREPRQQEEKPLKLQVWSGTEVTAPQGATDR

Adenosine receptor A1 = molecular target: T2, Adenosine receptor A1 (Homo sapiens, UniProt P30542); type: cell membranes, Membrane; conditions: cho;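 further: radioligand binding assay at the adenosine A1 receptor, with DPCPX serving as the labelled ligand; in other assays of this panel Not Active means under 50% inhibition at 10 µM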
T2 sequence (P30542 whole entry): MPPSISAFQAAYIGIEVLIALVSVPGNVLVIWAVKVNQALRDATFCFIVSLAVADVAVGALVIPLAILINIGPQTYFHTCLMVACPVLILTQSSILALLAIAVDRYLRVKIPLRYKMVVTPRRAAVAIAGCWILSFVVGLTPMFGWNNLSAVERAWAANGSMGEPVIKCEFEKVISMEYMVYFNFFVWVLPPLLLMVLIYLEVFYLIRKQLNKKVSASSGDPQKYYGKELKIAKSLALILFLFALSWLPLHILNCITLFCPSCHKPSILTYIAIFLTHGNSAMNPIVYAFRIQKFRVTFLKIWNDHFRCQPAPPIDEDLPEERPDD

[2] = molecular target: T3, Angiotensin-converting enzyme (Oryctolagus cuniculus, UniProt P12822); type: tissue-based, Lung
T3 sequence (P12822 whole entry): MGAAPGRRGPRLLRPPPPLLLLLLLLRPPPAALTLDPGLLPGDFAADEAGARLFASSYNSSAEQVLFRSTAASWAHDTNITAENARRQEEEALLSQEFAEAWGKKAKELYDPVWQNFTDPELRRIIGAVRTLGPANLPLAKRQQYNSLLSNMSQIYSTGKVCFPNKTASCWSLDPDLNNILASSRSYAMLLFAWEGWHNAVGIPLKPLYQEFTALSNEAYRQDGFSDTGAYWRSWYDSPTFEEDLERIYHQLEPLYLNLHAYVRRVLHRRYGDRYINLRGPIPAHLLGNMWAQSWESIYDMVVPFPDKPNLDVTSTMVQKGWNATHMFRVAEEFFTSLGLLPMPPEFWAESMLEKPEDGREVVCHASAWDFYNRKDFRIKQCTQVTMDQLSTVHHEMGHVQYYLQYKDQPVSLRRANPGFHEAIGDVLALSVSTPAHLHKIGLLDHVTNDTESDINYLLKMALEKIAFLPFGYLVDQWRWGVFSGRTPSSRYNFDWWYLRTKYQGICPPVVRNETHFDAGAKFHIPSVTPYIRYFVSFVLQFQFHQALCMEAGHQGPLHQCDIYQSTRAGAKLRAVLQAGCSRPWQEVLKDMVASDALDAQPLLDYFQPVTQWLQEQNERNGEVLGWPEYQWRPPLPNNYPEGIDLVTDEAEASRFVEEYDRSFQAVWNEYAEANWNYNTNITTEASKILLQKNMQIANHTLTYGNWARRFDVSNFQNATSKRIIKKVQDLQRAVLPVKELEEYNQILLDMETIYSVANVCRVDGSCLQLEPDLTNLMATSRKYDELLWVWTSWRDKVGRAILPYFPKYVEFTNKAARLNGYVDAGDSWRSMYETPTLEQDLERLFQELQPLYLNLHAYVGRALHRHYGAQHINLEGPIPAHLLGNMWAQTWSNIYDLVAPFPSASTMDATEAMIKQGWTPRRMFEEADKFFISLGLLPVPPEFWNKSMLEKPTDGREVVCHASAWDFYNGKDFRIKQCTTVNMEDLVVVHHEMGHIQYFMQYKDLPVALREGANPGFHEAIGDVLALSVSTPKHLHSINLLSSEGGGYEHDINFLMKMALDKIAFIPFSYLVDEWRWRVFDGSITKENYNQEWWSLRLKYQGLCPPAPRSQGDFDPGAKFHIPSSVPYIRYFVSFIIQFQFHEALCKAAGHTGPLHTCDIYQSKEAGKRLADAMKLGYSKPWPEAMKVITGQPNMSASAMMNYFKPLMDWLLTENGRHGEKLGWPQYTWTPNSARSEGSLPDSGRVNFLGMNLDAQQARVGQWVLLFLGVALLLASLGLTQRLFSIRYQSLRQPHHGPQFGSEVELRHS

[3] = molecular target: T4, Type-2 angiotensin II receptor (Homo sapiens, UniProt P50052); type: cell-based; conditions: cho-k1; further: in other assays of this panel Not Active means under 50% inhibition at 10 µM
T4 sequence (P50052 whole entry): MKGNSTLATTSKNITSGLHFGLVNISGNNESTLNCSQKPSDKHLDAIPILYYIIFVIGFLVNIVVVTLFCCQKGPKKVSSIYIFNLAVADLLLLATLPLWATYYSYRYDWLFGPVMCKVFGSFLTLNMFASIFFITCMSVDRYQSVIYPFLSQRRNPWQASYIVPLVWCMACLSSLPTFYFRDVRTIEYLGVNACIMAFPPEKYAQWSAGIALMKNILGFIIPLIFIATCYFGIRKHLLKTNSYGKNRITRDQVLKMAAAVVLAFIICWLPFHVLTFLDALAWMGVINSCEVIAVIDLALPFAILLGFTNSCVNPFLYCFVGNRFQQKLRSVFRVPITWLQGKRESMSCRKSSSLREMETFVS

[4] = molecular target: Voltage-gated inwardly rectifying potassium channel KCNH2 (Homo sapiens, UniProt Q12809); conditions: hek293; further: in other assays of this panel Not Active means under 50% inhibition at 10 µM
Chain of Voltage-gated inwardly rectifying potassium channel KCNH2 (Q12809 whole entry): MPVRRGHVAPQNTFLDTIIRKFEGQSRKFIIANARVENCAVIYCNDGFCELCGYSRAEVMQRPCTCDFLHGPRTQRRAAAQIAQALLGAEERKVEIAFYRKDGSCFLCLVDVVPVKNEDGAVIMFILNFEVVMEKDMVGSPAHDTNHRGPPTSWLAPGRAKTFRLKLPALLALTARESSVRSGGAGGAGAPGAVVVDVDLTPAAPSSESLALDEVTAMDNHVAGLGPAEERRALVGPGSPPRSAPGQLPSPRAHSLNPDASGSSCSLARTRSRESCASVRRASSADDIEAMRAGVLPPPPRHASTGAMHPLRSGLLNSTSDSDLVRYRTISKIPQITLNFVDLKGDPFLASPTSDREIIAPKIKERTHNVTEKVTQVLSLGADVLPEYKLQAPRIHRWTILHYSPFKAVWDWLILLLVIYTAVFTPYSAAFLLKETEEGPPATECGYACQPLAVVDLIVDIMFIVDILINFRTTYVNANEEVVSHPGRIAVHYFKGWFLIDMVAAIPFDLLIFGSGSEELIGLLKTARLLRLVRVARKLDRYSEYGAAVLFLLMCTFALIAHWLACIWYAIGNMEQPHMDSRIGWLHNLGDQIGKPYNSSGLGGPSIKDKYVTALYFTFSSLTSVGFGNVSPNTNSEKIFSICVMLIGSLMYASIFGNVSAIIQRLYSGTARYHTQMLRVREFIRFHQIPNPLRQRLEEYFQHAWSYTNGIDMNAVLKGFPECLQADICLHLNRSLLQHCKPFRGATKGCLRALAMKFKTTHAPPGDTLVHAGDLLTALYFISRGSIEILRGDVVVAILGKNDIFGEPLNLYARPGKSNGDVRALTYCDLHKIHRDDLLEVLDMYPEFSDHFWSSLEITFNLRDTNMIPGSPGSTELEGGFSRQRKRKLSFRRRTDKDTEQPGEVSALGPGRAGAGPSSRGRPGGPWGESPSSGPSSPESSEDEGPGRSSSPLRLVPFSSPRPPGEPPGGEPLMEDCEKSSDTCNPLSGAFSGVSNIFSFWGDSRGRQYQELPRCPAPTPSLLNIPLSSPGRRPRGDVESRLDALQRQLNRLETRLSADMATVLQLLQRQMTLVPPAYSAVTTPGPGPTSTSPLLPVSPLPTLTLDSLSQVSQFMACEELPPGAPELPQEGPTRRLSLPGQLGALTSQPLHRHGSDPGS

[5] = DRUGMATRIX: Glutamate, AMPA radioligand binding (ligand: [3H] AMPA); type: cell membranes, Rattus norvegicus, Wistar, Cerebral cortex, Membrane; conditions: Not Active = under 50% inhibition at 10 µM

Row | SMILES | IC50 (Cytochrome P450 2A6) | Ki (Cytochrome P450 2A6) | IC50 [1] | IC50 (Histamine H2 receptor; cho-k1) | IC50 (Adenosine receptor A1) | IC50 [2] | IC50 [3] | IC50 [4] | Ki [4] | IC50 [5] | Ki [5] | IC50 (Histamine H2 receptor; read-out: IC50) | Ki (Histamine H2 receptor; read-out: Ki)
1 | CC1(C)O[C@@H]2C[C@H]3[C@@H]4C[C@H](F)C5=CC(=O)C=C[C@]5(C)[C@@]4(F)[C@@H](O)C[C@]3(C)[C@]2(C(=O)CO)O1 [FLUOCINOLONE ACETONIDE] | Not Active | Not Active | Not Active | Not Active | Not Active | Not Active | Not Active | Not Active | Not Active | Not Active | Not Active |  | 
2 | CC1(C)O[C@@H]2C[C@H]3[C@@H]4C[C@H](F)C5=CC(=O)CC[C@]5(C)[C@H]4[C@@H](O)C[C@]3(C)[C@]2(C(=O)CO)O1 [FLURANDRENOLIDE] | Not Active | Not Active | Not Active | Not Active | Not Active | Not Active | Not Active | Not Active | Not Active | Not Active | Not Active |  | 
3 | CN(C)c1ccc(C(=C2C=CC(=[N+](C)C)C=C2)c2ccc(N(C)C)cc2)cc1.[Cl-] [GENTIAN VIOLET] | Not Active | Not Active | Not Active |  | Not Active | Not Active | Not Active | Not Active | Not Active | Not Active | Not Active | 1160 nM | 1140 nM
4 | Cc1ccc(S(=O)(=O)NC(=O)NN2CC3CCCC3C2)cc1 (configuration not stated) [GLICLAZIDE] | Not Active | Not Active | Not Active | Not Active | Not Active | Not Active | Not Active | Not Active | Not Active | Not Active | Not Active |  | 
5 | CC(C)Cc1ccc(C(C)C(=O)O)cc1 (configuration not stated) [IBUPROFEN] | Not Active | Not Active | Not Active | Not Active | Not Active | Not Active | Not Active | Not Active | Not Active | Not Active | Not Active |  | 
6 | COc1ccc2c(c1)c(CC(=O)O)c(C)n2C(=O)c1ccc(Cl)cc1 [INDOMETHACIN] | Not Active | Not Active | Not Active | Not Active | Not Active | Not Active | Not Active | Not Active | Not Active | Not Active | Not Active |  | 
7 | CCc1c2c(nc3ccc(OC(=O)N4CCC(N5CCCCC5)CC4)cc13)-c1cc3c(c(=O)n1C2)COC(=O)[C@]3(O)CC [IRINOTECAN] | Not Active | Not Active | Not Active | Not Active | Not Active | Not Active | Not Active | Not Active | Not Active | Not Active | Not Active |  | 
8 | CC(C(=O)O)c1cccc(C(=O)c2ccccc2)c1 (configuration not stated) [KETOPROFEN] | Not Active | Not Active | Not Active | Not Active | Not Active | Not Active | Not Active | Not Active | Not Active | Not Active | Not Active |  | 
9 | Nc1ccn([C@@H]2CS[C@H](CO)O2)c(=O)n1 [LAMIVUDINE] | Not Active | Not Active | Not Active | Not Active | Not Active | Not Active | Not Active | Not Active | Not Active | Not Active | Not Active |  | 
10 | O=S(=O)([O-])CCS.[Na+] [MESNA] | Not Active | Not Active | Not Active | Not Active | Not Active | Not Active | Not Active | Not Active | Not Active | Not Active | Not Active |  | 
11 | C#C[C@]1(O)CC[C@H]2[C@@H]3CCc4cc(OC)ccc4[C@H]3CC[C@@]21C [MESTRANOL] | Not Active | Not Active | Not Active | Not Active | Not Active | Not Active | Not Active | Not Active | Not Active | Not Active | Not Active |  | 
12 | CC(=O)Nc1cccc(O)c1 [METACETAMOL] | Not Active | Not Active | Not Active | Not Active | Not Active | Not Active | Not Active | Not Active | Not Active | Not Active | Not Active |  | 
13 | Cc1ncc([N+](=O)[O-])n1CCO [METRONIDAZOLE] | Not Active | Not Active | Not Active | Not Active | Not Active | Not Active | Not Active | Not Active | Not Active | Not Active | Not Active |  | 
14 | CC(C)(C(=O)c1cccnc1)c1cccnc1 [METYRAPONE] | Not Active | Not Active | Not Active | Not Active | Not Active | Not Active | Not Active | Not Active | Not Active | Not Active | Not Active |  | 
15 | Oc1ccc(OCc2ccccc2)cc1 [MONOBENZONE] | Not Active | Not Active | Not Active | Not Active | Not Active | Not Active | Not Active | Not Active | Not Active | Not Active | Not Active |  | 
16 | CC(C)(Oc1ccc(C2CCCc3ccccc32)cc1)C(=O)O (configuration not stated) [NAFENOPIN] | Not Active | Not Active | Not Active | Not Active | Not Active | Not Active | Not Active | Not Active | Not Active | Not Active | Not Active |  | 
